How the values were obtained:
Conditions in all cases: 72 h
HL-60 = assay: area under dose-response curve (viability, 1 nM-10 uM) (fraction (0-1)); higher = more sensitive
How it was run: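 In 384-well plates, the full library was rescreened in duplicate on HL-60 cells in RPMI 1640 with 10% FBS, at 1–10,000 nM in five tenfold concentrations, for 72 h at 37 °C, 5% CO2. Each run also held DMSO or 100 nM of one of three metabolic inhibitors. Viability was measured by CellTiter-Glo and normalised to DMSO wells and to wells with proteasome inhibitor, present at 10 μM. Any area under the curve comes from four-parameter log-logistic fitting with drc and PharmacoGx.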

[1] = system: myeloid leukemia patient primary cells Pat.11; assay: cell viability (% survival relative to DMSO control); higher = less cytotoxic
How it was run: (§1)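 Thawed, Ficoll-purified mononuclear cells from AML or CML patients in RPMI 1640 with 10% FBS were seeded at 10,000 cells/well on 384-well plates pre-printed with 70 compounds at five tenfold concentrations, 1–10,000 nM, in duplicate, for 72 h. Viability was read by CellTiter-Glo and normalised to DMSO and 10 μM proteasome-inhibitor wells. Where given, area under the curve came from four-parameter log-logistic fits (drc, PharmacoGx R packages).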

[2] = system: myeloid leukemia patient primary cells Pat.7; assay: as above
How it was run: as §1

[3] = system: myeloid leukemia patient primary cells Pat.5; assay: as above
How it was run: as §1

[4] = co-treatment: GSK2194069 100 nM
[5] = co-treatment: pictilisib 100 nM

Oc1cc(Cl)ccc1Oc1ccc(Cl)cc1Cl [Triclosan]
area under dose-response curve (HL-60; co-treatment: AZD3965 100 nM): < 0.0301
area under dose-response curve (HL-60; co-treatment: DMSO vehicle): < 0.0301
area under dose-response curve (HL-60; [4]): < 0.0301
area under dose-response curve (HL-60; [5]): < 0.0301

O=C1Oc2ccccc2C(=O)C1CC1C(=O)Oc2ccccc2C1=O (stereo not drawn) [Dicumarol]
area under dose-response curve (HL-60; co-treatment: AZD3965 100 nM): < 0.0301
area under dose-response curve (HL-60; co-treatment: DMSO vehicle): < 0.0301
area under dose-response curve (HL-60; [4]): < 0.0301
area under dose-response curve (HL-60; [5]): < 0.0301

CC(C)Cc1sc(N)nc1-c1ccc(P(=O)(O)O)o1
area under dose-response curve (HL-60; co-treatment: AZD3965 100 nM): < 0.0301
area under dose-response curve (HL-60; co-treatment: DMSO vehicle): < 0.0301
area under dose-response curve (HL-60; [4]): < 0.0301
area under dose-response curve (HL-60; [5]): < 0.0301

CN(C)c1nc(O)c2[nH]cnc2n1 [2-Dimethylamino-6-hydroxypurine]
area under dose-response curve (HL-60; co-treatment: AZD3965 100 nM): < 0.0301
area under dose-response curve (HL-60; co-treatment: DMSO vehicle): < 0.0301
area under dose-response curve (HL-60; [4]): < 0.0301
area under dose-response curve (HL-60; [5]): < 0.0301

COc1c(C)c2c(c(O)c1C/C=C(\C)CCC(=O)O)C(=O)OC2 [Mycophenolic acid]
area under dose-response curve (HL-60; co-treatment: AZD3965 100 nM): 0.0599
area under dose-response curve (HL-60; co-treatment: DMSO vehicle): < 0.0301
area under dose-response curve (HL-60; [4]): 0.0302
area under dose-response curve (HL-60; [5]): 0.0317
cell viability ([1]; 1 nM): 88.3%
cell viability ([1]; 10 nM): > 100%
cell viability ([1]; 100 nM): 91%
cell viability ([1]; 1000 nM): > 100%
cell viability ([1]; 10000 nM): 78.1%
cell viability ([2]; 1 nM): 52.5%
cell viability ([2]; 10 nM): 94.8%
cell viability ([2]; 100 nM): 56.3%
cell viability ([2]; 1000 nM): > 100%
cell viability ([2]; 10000 nM): 99.3%
cell viability ([3]; 1 nM): < 0%
cell viability ([3]; 10 nM): 62.9%
cell viability ([3]; 100 nM): 26%
cell viability ([3]; 1000 nM): 67.3%
cell viability ([3]; 10000 nM): > 100%

O=C(O)C(Cl)Cl [Dichloroacetate]
area under dose-response curve (HL-60; co-treatment: AZD3965 100 nM): < 0.0301
area under dose-response curve (HL-60; co-treatment: DMSO vehicle): < 0.0301
area under dose-response curve (HL-60; [4]): < 0.0301
area under dose-response curve (HL-60; [5]): < 0.0301

O=C(O)c1cc2sccc2[nH]1 [4H-thieno[3,2-b]pyrrole-5-carboxylic acid]
area under dose-response curve (HL-60; co-treatment: AZD3965 100 nM): < 0.0301
area under dose-response curve (HL-60; co-treatment: DMSO vehicle): < 0.0301
area under dose-response curve (HL-60; [4]): < 0.0301
area under dose-response curve (HL-60; [5]): < 0.0301

CCOc1ccc(Cc2cc([C@@H]3O[C@H](CO)[C@@H](O)[C@H](O)[C@H]3O)ccc2Cl)cc1 [Dapagliflozin]
area under dose-response curve (HL-60; co-treatment: AZD3965 100 nM): < 0.0301
area under dose-response curve (HL-60; co-treatment: DMSO vehicle): < 0.0301
area under dose-response curve (HL-60; [4]): < 0.0301
area under dose-response curve (HL-60; [5]): < 0.0301

CCN(CC)CCN(Cc1ccc(-c2ccc(C(F)(F)F)cc2)cc1)C(=O)Cn1c(SCc2ccc(F)cc2)nc(=O)c2c1CCC2 [Darapladib]
area under dose-response curve (HL-60; co-treatment: AZD3965 100 nM): 0.144
area under dose-response curve (HL-60; co-treatment: DMSO vehicle): 0.14
area under dose-response curve (HL-60; [4]): 0.167
area under dose-response curve (HL-60; [5]): 0.134
cell viability ([1]; 1 nM): 87.2%
cell viability ([1]; 10 nM): 98.3%
cell viability ([1]; 100 nM): 85.3%
cell viability ([1]; 1000 nM): 88.2%
cell viability ([1]; 10000 nM): 0.357%
cell viability ([2]; 1 nM): 63.7%
cell viability ([2]; 10 nM): 74.4%
cell viability ([2]; 100 nM): 40.1%
cell viability ([2]; 1000 nM): 5.93%
cell viability ([2]; 10000 nM): < 0%
cell viability ([3]; 1 nM): 12.5%
cell viability ([3]; 10 nM): 23.9%
cell viability ([3]; 100 nM): 5.8%
cell viability ([3]; 1000 nM): < 0%
cell viability ([3]; 10000 nM): 8.02%

Nc1ncnc2c1ncn2[C@@H]1O[C@H](CSCC[C@H](N)C(=O)O)[C@@H](O)[C@H]1O [S-Adenosyl Homocysteine]
area under dose-response curve (HL-60; co-treatment: AZD3965 100 nM): < 0.0301
area under dose-response curve (HL-60; co-treatment: DMSO vehicle): < 0.0301
area under dose-response curve (HL-60; [4]): < 0.0301
area under dose-response curve (HL-60; [5]): < 0.0301

[N-]=[N+]=CC(=O)CC[C@H](N)C(=O)O [6-Diazo-5-oxo-L-norleucine]
area under dose-response curve (HL-60; co-treatment: AZD3965 100 nM): < 0.0301
area under dose-response curve (HL-60; co-treatment: DMSO vehicle): < 0.0301
area under dose-response curve (HL-60; [4]): < 0.0301
area under dose-response curve (HL-60; [5]): < 0.0301

CCOC(=O)N1c2ccc(C(F)(F)F)cc2[C@@H](N(Cc2cc(C(F)(F)F)cc(C(F)(F)F)c2)C(=O)OC)C[C@H]1CC [Torcetrapib]
area under dose-response curve (HL-60; co-treatment: AZD3965 100 nM): < 0.0301
area under dose-response curve (HL-60; co-treatment: DMSO vehicle): < 0.0301
area under dose-response curve (HL-60; [4]): < 0.0301
area under dose-response curve (HL-60; [5]): < 0.0301
cell viability ([1]; 1 nM): 96.7%
cell viability ([1]; 10 nM): 85.1%
cell viability ([1]; 100 nM): 99.1%
cell viability ([1]; 1000 nM): > 100%
cell viability ([1]; 10000 nM): 97.5%
cell viability ([2]; 1 nM): 84.5%
cell viability ([2]; 10 nM): 58.4%
cell viability ([2]; 100 nM): > 100%
cell viability ([2]; 1000 nM): 50.5%
cell viability ([2]; 10000 nM): 30%
cell viability ([3]; 1 nM): 56.9%
cell viability ([3]; 10 nM): 0.265%
cell viability ([3]; 100 nM): 97.4%
cell viability ([3]; 1000 nM): 27.5%
cell viability ([3]; 10000 nM): 1.18%

Source: the supplement of paper PMC8671470
